#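 Interpolation was linear, between the two tested concentrations surrounding the appropriate level; five concentrations were tested over 48 hours in 96-well plates. TGI denotes the concentration required for complete inhibition of growth.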
# How the values were obtained:
# Assay in all cases: growth of human tumour cells (NCI), 48 h
# [1] = system: 786-0 renal
# [2] = system: A498 renal
# [3] = system: A549 NSCLC
# [4] = system: ACHN renal
# [5] = system: BT-549 breast
# [6] = system: CAKI-1 renal
# [7] = system: CCRF-CEM leukemia
# [8] = system: COLO 205 colon
# [9] = system: DU-145 prostate
# [10] = system: EKVX NSCLC
# [11] = system: HCC-2998 colon
# [12] = system: HCT-116 colon
# [13] = system: HCT-15 colon
# [14] = system: HL-60(TB) leukemia
# [15] = system: HOP-62 NSCLC
# [16] = system: HOP-92 NSCLC
# [17] = system: HS 578T breast
# [18] = system: HT29 colon
# [19] = system: IGROV1 ovarian
# [20] = system: K-562 leukemia
# [21] = system: KM12 colon
# [22] = system: LOX IMVI melanoma
# [23] = system: M14 melanoma
# [24] = system: MCF7 breast
# [25] = system: MDA-MB-231 breast
# [26] = system: MDA-MB-435
# [27] = system: MDA-N
# [28] = system: MOLT-4 leukemia
# [29] = system: NCI-H226 lung
# [30] = system: NCI-H23 lung
# [31] = system: NCI-H460 lung
# [32] = system: NCI-H522 lung
# [33] = system: NCI/ADR-RES ovarian
# [34] = system: OVCAR-3 ovarian
# [35] = system: OVCAR-5 ovarian
# [36] = system: PC-3 prostate
# [37] = system: RPMI-8226 leukemia
# [38] = system: RXF 393 renal
# [39] = system: SF-268 CNS
# [40] = system: SF-295 CNS
# [41] = system: SF-539 CNS
# [42] = system: SK-MEL-2 melanoma
# [43] = system: SK-MEL-28 melanoma
# [44] = system: SK-MEL-5 melanoma
# [45] = system: SK-OV-3 ovarian
# [46] = system: SN12C renal
# [47] = system: SNB-19 CNS
# [48] = system: SNB-75 CNS
# [49] = system: SR leukemia
# [50] = system: SW-620 colon
# [51] = system: T-47D breast
# [52] = system: TK-10 renal
# [53] = system: U251 CNS
# [54] = system: UACC-257 melanoma
# [55] = system: UACC-62 melanoma
# [56] = system: UO-31 renal
# [57] = system: MALME-3M melanoma
# [58] = system: OVCAR-4 ovarian
# [59] = system: OVCAR-8 ovarian
compound,measurement,setting,value
O=C(CCc1ccc(O)c(O)c1)NCCc1cc(O)cc(OCc2ccccc2)c1,TGI,[1],> 100 µM
same,TGI,[2],> 100 µM
same,TGI,[3],> 100 µM
same,TGI,[4],46.9 µM
same,TGI,[5],86 µM
same,TGI,[6],> 100 µM
same,TGI,[7],75.9 µM
same,TGI,[8],> 100 µM
same,TGI,[9],> 100 µM
same,TGI,[10],> 100 µM
same,TGI,[11],40.7 µM
same,TGI,[12],> 100 µM
same,TGI,[13],58.4 µM
same,TGI,[14],38.2 µM
same,TGI,[15],> 100 µM
same,TGI,[16],> 100 µM
same,TGI,[17],> 100 µM
same,TGI,[18],> 100 µM
same,TGI,[19],> 100 µM
same,TGI,[20],> 100 µM
same,TGI,[21],> 100 µM
same,TGI,[22],> 100 µM
same,TGI,[23],> 100 µM
same,TGI,[24],> 100 µM
same,TGI,[25],> 100 µM
same,TGI,[26],> 100 µM
same,TGI,[27],58.7 µM
same,TGI,[28],> 100 µM
same,TGI,[29],> 100 µM
same,TGI,[30],80 µM
same,TGI,[31],51.7 µM
same,TGI,[32],> 100 µM
same,TGI,[33],> 100 µM
same,TGI,[34],> 100 µM
same,TGI,[35],> 100 µM
same,TGI,[36],> 100 µM
same,TGI,[37],> 100 µM
same,TGI,[38],> 100 µM
same,TGI,[39],> 100 µM
same,TGI,[40],> 100 µM
same,TGI,[41],> 100 µM
same,TGI,[42],> 100 µM
same,TGI,[43],> 100 µM
same,TGI,[44],32.2 µM
same,TGI,[45],> 100 µM
same,TGI,[46],> 100 µM
same,TGI,[47],36.7 µM
same,TGI,[48],> 100 µM
same,TGI,[49],83.4 µM
same,TGI,[50],> 100 µM
same,TGI,[51],> 100 µM
same,TGI,[52],> 100 µM
same,TGI,[53],> 100 µM
same,TGI,[54],> 100 µM
same,TGI,[55],> 100 µM
same,TGI,[56],71 µM
O=C1CC2(CCC(O)(c3ccccc3)C(C(=O)c3ccccc3)C2)C(=O)c2ccccc2N1 (stereo unspecified),TGI,[2],> 100 µM
same,TGI,[3],> 100 µM
same,TGI,[5],> 100 µM
same,TGI,[6],> 100 µM
same,TGI,[7],> 100 µM
same,TGI,[8],> 100 µM
same,TGI,[9],> 100 µM
same,TGI,[10],> 100 µM
same,TGI,[11],> 100 µM
same,TGI,[12],> 100 µM
same,TGI,[13],> 100 µM
same,TGI,[14],> 100 µM
same,TGI,[15],> 100 µM
same,TGI,[16],> 100 µM
same,TGI,[17],> 100 µM
same,TGI,[18],> 100 µM
same,TGI,[19],> 100 µM
same,TGI,[20],> 100 µM
same,TGI,[22],> 100 µM
same,TGI,[23],> 100 µM
same,TGI,[57],> 100 µM
same,TGI,[24],> 100 µM
same,TGI,[25],> 100 µM
same,TGI,[26],> 100 µM
same,TGI,[27],> 100 µM
same,TGI,[28],> 100 µM
same,TGI,[29],> 100 µM
same,TGI,[30],> 100 µM
same,TGI,[31],> 100 µM
same,TGI,[33],> 100 µM
same,TGI,[34],> 100 µM
same,TGI,[58],> 100 µM
same,TGI,[35],> 100 µM
same,TGI,[59],> 100 µM
same,TGI,[36],> 100 µM
same,TGI,[38],> 100 µM
same,TGI,[39],> 100 µM
same,TGI,[40],> 100 µM
same,TGI,[41],> 100 µM
same,TGI,[42],> 100 µM
same,TGI,[43],> 100 µM
same,TGI,[44],> 100 µM
same,TGI,[45],> 100 µM
same,TGI,[46],> 100 µM
same,TGI,[47],> 100 µM
same,TGI,[48],> 100 µM
same,TGI,[49],> 100 µM
same,TGI,[50],> 100 µM
same,TGI,[51],> 100 µM
same,TGI,[52],> 100 µM
same,TGI,[53],> 100 µM
same,TGI,[54],> 100 µM
same,TGI,[55],> 100 µM
same,TGI,[56],> 100 µM
O=C(Nc1ccccc1)c1cc(S(=O)(=O)n2cc[nH]c2=O)c(S)cc1Cl,TGI,[1],> 100 µM
same,TGI,[2],> 100 µM
same,TGI,[3],> 100 µM
same,TGI,[4],> 100 µM
same,TGI,[5],> 100 µM
same,TGI,[6],> 100 µM
same,TGI,[7],> 100 µM
same,TGI,[8],> 100 µM
same,TGI,[9],> 100 µM
same,TGI,[10],> 100 µM
same,TGI,[11],> 100 µM
same,TGI,[12],> 100 µM
same,TGI,[13],> 100 µM
same,TGI,[14],> 100 µM
same,TGI,[15],> 100 µM
same,TGI,[16],> 100 µM
same,TGI,[17],> 100 µM
same,TGI,[18],> 100 µM
same,TGI,[19],> 100 µM
same,TGI,[20],> 100 µM
same,TGI,[21],> 100 µM
same,TGI,[22],> 100 µM
same,TGI,[23],> 100 µM
same,TGI,[24],> 100 µM
same,TGI,[25],> 100 µM
same,TGI,[26],> 100 µM
same,TGI,[27],> 100 µM
same,TGI,[28],> 100 µM
same,TGI,[29],> 100 µM
same,TGI,[30],> 100 µM
same,TGI,[31],> 100 µM
same,TGI,[32],> 100 µM
same,TGI,[33],> 100 µM
same,TGI,[34],> 100 µM
same,TGI,[35],> 100 µM
same,TGI,[59],> 100 µM
same,TGI,[36],> 100 µM
same,TGI,[37],> 100 µM
same,TGI,[38],> 100 µM
same,TGI,[39],> 100 µM
same,TGI,[40],> 100 µM
same,TGI,[41],> 100 µM
same,TGI,[42],> 100 µM
same,TGI,[43],> 100 µM
same,TGI,[44],> 100 µM
same,TGI,[46],> 100 µM
same,TGI,[47],> 100 µM
same,TGI,[48],97.5 µM
same,TGI,[49],> 100 µM
same,TGI,[50],> 100 µM
same,TGI,[51],> 100 µM
same,TGI,[52],> 100 µM
same,TGI,[53],> 100 µM
same,TGI,[54],> 100 µM
same,TGI,[55],> 100 µM
same,TGI,[56],> 100 µM

# From PubChem BioAssay (NCI)
